Where two headings read alike, the source gives them in different places.
Assays:
[1] = tested on: K562-GRE reporter gene; test: K562-GRE reporter gene activity; assay type: cell-based; settings: read-out: K562-GRE Reporter EC50
Experimental: To generate the parental K562-GRE cell line, K562 cells were seeded at 5×10^5 cells/well onto a 6-well plate (brand: Costar, Cat. No: 3516) containing 2 mL of complete medium (RPM1640, 10% FBS, penicillin-streptomycin) and cultured at 37° C. with 5% CO2 for 24 h. The next day, 3 μg of pNL2.2[NLucP/MMTV/Hygro-NANO] (Promega) and 3 μL of PLUS reagent (brand: Invitrogen, Cat. No: 11514-015) were diluted in 150 μL of Opti-MEM (brand: Gibco, Cat. No: 11058021) and incubated at room temperature for 5 min. The pNL2.2[NLucP/MMTV/Hygro-NANO] vector contains MMTV LTR (mouse mammary tumor virus long terminal repeat), which drives transcription of the luciferase reporter gene NanoLuc in response to activation of several nuclear receptors (e.g. glucocorticoid receptor and androgen receptor). After incubation, the diluted DNA solution was mixed with Lipofectamine LTX solution (brand: Invitrogen, Cat. No: 15338-100) (6 μL of Lipofectamine LTX+144 μL of Opti-MEM) in a 1:1 ratio, pre-incubated, and incubated at room temperature for 15 min to form a DNA-Lipofectamine LTX complex. After incubation, 300 μL of the DNA-Lipofectamine complex was added directly to the cell wells. The K562 cells were transfected at 37° C. with 5% CO2 for 24 h. After transfection, the cells were washed with 3 mL of PBS and selectively grown for two weeks with complete growth medium containing 125 μg/mL hygromycin B (brand: Invitrogen, Cat. No: 10687010). “K562-GRE (pNL2.2[NLucP/MMTV/Hygro-NANO])” cells were generated.
After mixing, the cells were cultured in an incubator at 37° C. for 24 h. After 24 h of incubation, an equal volume of 100 μL of Nano-Glo luciferase assay system (brand: Promega, Cat. No: N1120) was added to the cells, the mixture was reacted in a shaker at […] for 10 min, and the chemiluminescence values were detected using the PHERAstar instrument. The antibody binding curves were plotted using the logarithmic value of the antibody concentration as the abscissa and the corresponding chemiluminescence reading as the ordinate, and the EC50 value was calculated by four-parameter fitting (GraphPad Prism9).

[2] = tested on: CHS mouse model; test: Efficacy test in CHS mouse model (FITC sensitization, right ear thickness); assay type: in vivo, C57BL/6N mice; settings: 3 μg/mouse
Experimental: Construction of CHS mouse model: 6- to 8-week-old female C57BL/6N mice (Beijing Vital River Laboratory Animal Technology Co., Ltd.) were selected, and all mice were shaved off abdominal hair using a small animal hair clipper. 400 μL of the sensitizer was pipetted with a micropipette and applied evenly to the abdomen of the mice for epidermal sensitization. After application, the mice were held for 3-5 s and the solvent was allowed to evaporate from the skin as clean as possible. The specific preparation method for the sensitizer was: 0.5 g of FITC (fluorescein isothiocyanate; sigma-Aldrich) powder was weighed and fully dissolved in a solvent of 50 mL of acetone (SinoPharm reagent) and 50 mL of DBP (dibutyl phthalate; sigma-Aldrich) in equal proportion to give the sensitizer with the FITC content of 0.5%. On the 6th day after sensitization, the thickness of the right ear of the mice was measured with a dial thickness gauge as a baseline value, then a freshly prepared sensitizer was pipetted with a micropipette and applied evenly inside and outside of the right ear of the mice respectively for epidermal stimulation, and 10 μL of the sensitizer was applied on each side. 24 h after stimulation, the thickness of the right ear of the mice was measured again with a dial thickness gauge to obtain the thickness change of the right ear of the mice, A thickness of right ear=(thickness of right ear 24 h after stimulation)−(baseline value of thickness of right ear).
Therapeutic regimen for CHS model mouse: mice were divided into a blank group, a negative control group, a positive control group, and an experimental group. […] The drug was administered by one-time intraperitoneal injection 1 h before the right ear epidermal stimulation.

[3] = molecular target: Glucocorticoid Receptor GR (Homo sapiens (Human), UniProt P04150); test: Binding activity to glucocorticoid receptor GR (Polarscreen fluorescence polarization kit); settings: GR full length, 2 h
Chain of Glucocorticoid Receptor GR (P04150 whole entry): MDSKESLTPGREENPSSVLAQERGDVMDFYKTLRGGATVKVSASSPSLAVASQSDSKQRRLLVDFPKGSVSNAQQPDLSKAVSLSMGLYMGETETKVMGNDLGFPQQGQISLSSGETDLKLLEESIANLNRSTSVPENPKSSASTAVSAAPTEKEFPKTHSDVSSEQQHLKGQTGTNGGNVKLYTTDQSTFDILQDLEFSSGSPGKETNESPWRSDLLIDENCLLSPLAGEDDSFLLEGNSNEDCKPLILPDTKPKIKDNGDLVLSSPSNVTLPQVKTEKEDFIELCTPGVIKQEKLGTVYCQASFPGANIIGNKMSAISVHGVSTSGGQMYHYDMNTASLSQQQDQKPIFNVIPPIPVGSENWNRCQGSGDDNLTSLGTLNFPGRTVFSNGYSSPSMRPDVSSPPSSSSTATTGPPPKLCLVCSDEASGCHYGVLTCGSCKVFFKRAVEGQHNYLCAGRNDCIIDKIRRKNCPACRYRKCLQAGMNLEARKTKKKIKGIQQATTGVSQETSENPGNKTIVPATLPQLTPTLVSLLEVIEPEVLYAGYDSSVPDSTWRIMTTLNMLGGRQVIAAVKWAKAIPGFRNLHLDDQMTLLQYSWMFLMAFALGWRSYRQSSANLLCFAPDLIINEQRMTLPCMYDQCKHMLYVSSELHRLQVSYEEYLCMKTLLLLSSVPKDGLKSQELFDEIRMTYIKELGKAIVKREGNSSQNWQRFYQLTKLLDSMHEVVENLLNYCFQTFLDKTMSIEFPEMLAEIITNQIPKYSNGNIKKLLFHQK
Experimental: The binding activity of the compound to GR was determined using the Polarscreen Glucocorticoid Receptor Assay Kit, Red (brand: Thermo, Cat. No: A15898). […] The highest concentration was 100 μM, 8 concentrations in total. […] With the log value of the final concentration of the compound as the X axis and the mP value as the Y axis, data was input into the processing software Graphpad Prism 9, and the EC50 value was calculated by four-parameter fitting

[4] = K562-GRE cells, 24 h incubation, NanoLuc luciferase

Row | SMILES | EC50 ([1]; 24 h) [nM] | EC50 [1, 4] [nM] | also measured
1 | C[C@]12C=CC(=O)C=C1CC[C@@H]1[C@@H]2[C@@H](O)C[C@@]2(C)[C@H]1C[C@H]1O[C@@H](c3ccc(Cc4ccc(N)c5c4CCO5)cc3)O[C@]12C(=O)CO [Compound 001, (6aR,6bS,7S,8aS,8bS,10R,11aR,12aS,12bS)-10-(4-((7-amino-2,3-dihydrobenzofuran-4-yl)methyl)phenyl)-7-hydroxy-8b-(2-hydroxyacetyl)-6a,8a-dimethyl-6a,6b,7,8,8a,8b,11a,12,12a,12b-decahydro-1H-naphtho[2′,1′:4,5]indeno[1,2-d][1,3]dioxolan-4(2H)-one] | 3.5 |  | thickness of the right ear in CHS mice compared to the negative control group ([2]; one-time intraperitoneal injection 1 h before right ear stimulation, measured 24 h after stimulation): significant decrease; efficacy compared with positive reference compound a at the same dose ([2]; one-time intraperitoneal injection, CHS mice, right ear thickness): superior in efficacy to the positive reference compound a; EC50 [3]: 13 nM
2 | C[C@]12C=CC(=O)C=C1CC[C@@H]1[C@@H]2[C@@H](O)C[C@@]2(C)[C@H]1C[C@H]1O[C@@H](c3ccc(Cc4ccc5nc[nH]c5c4)cc3)O[C@]12C(=O)CO [Compound 002, (6aR,6bS,7S,8aS,8bS,10R,11aR,12aS,12bS)-10-(4-((1H-benzo[d]imidazol-6-yl)methyl)phenyl)-7-hydroxy-8b-(2-hydroxyacetyl)-6a,8a-dimethyl-6a,6b,7,8,8a,8b,11a,12,12a,12b-decahydro-1H-naphtho[2′,1′:4,5]indeno[1,2-d][1,3]dioxolan-4(2H)-one] |  | 9 | 
3 | C[C@]12C=CC(=O)C=C1CC[C@@H]1[C@@H]2[C@@H](O)C[C@@]2(C)[C@H]1C[C@H]1O[C@@H](c3ccc(Cc4ccc5cc[nH]c5c4)cc3)O[C@]12C(=O)CO [Compound 003, (6aR,6bS,7S,8aS,8bS,10R,11aR,12aS,12bS)-10-(4-((1H-indol-6-yl)methyl)phenyl)-7-hydroxy-8b-(2-hydroxyacetyl)-6a,8a-dimethyl-6a,6b,7,8,8a,8b,11a,12,12a,12b-decahydro-1H-naphtho[2′,1′:4,5]indeno[1,2-d][1,3]dioxolan-4(2H)-one] |  | 3.8 | 
4 | C[C@]12C=CC(=O)C=C1CC[C@@H]1[C@@H]2[C@@H](O)C[C@@]2(C)[C@H]1C[C@H]1O[C@@H](c3ccc(Cc4ccc5c(c4)NCC5)cc3)O[C@]12C(=O)CO [Compound 004, (6aR,6bS,7S,8aS,8bS,10R,11aR,12aS,12bS)-7-hydroxy-8b-(2-hydroxyacetyl)-10-(4-(indolin-6-ylmethyl)phenyl)-6a,8a-dimethyl-6a,6b,7,8,8a,8b,11a,12,12a,12b-decahydro-1H-naphtho[2′,1′:4,5]indeno[1,2-d][1,3]dioxolan-4(2H)-one] | 7.5 |  | EC50 [3]: 42.5 nM
5 | C[C@]12C=CC(=O)C=C1CC[C@@H]1[C@@H]2[C@@H](O)C[C@@]2(C)[C@H]1C[C@H]1O[C@@H](c3ccc(Cc4ccc5c(c4)OCCN5)cc3)O[C@]12C(=O)CO [Compound 005, (6aR,6bS,7S,8aS,8bS,10R,11aR,12aS,12bS)-10-(4-((3,4-dihydro-2H-benzo[b][1,4]oxazin-7-yl)methyl)phenyl)-7-hydroxy-8b-(2-hydroxyacetyl)-6a,8a-dimethyl-1,2,6a,6b,7,8,8a,8b,11a,12,12a,12b-decahydro-1H-naphtho[2′,1′:4,5]indeno[1,2-d][1,3]dioxolan-4(2H)-one] |  | 5.6 | 
6 | C[C@]12C=CC(=O)C=C1[C@@H](F)C[C@H]1[C@@H]3C[C@H]4O[C@@H](c5ccc(Cc6ccc7c(c6)OCCN7)cc5)O[C@@]4(C(=O)CO)[C@@]3(C)C[C@H](O)[C@@]12F [Compound 006, (2S,6aS,6bR,7S,8aS,8bS,10R,11aR,12aS,12bS)-10-(4-((3,4-dihydro-2H-benzo[b][1,4]oxazin-7-yl)methyl)phenyl)-2,6b-difluoro-7-hydroxy-8b-(2-hydroxyacetyl)-6a,8a-dimethyl-6a,6b,7,8,8a,8b,11a,12,12a,12b-decahydro-1H-naphtho[2′,1′:4,5]indeno[1,2-d][1,3]dioxolan-4(2H)-one] | 1.7 |  | 
7 | C[C@]12C=CC(=O)C=C1CC[C@@H]1[C@@H]2[C@@H](O)C[C@@]2(C)[C@H]1C[C@H]1O[C@@H](c3ccc(Cc4ccc(N)c5ncoc45)cc3)O[C@]12C(=O)CO [Compound 007, (6aR,6bS,7S,8aS,8bS,10R,11aR,12aS,12bS)-10-(4-((4-aminobenzo[d]oxazol-7-yl)methyl)phenyl)-7-hydroxy-8b-(2-hydroxyacetyl)-6a,8a-dimethyl-6a,6b,7,8,8a,8b,11a,12,12a,12b-decahydro-1H-naphtho[2′,1′:4,5]indeno[1,2d][1,3]dioxolan-4(2H)-one] | 2.1 |  | EC50 [3]: 17.1 nM
8 | C[C@]12C=CC(=O)C=C1CC[C@@H]1[C@@H]2[C@@H](O)C[C@@]2(C)[C@H]1C[C@H]1O[C@@H](c3ccc(Cc4ccc(N)c5c4OCO5)cc3)O[C@]12C(=O)CO [Compound 008, (6aR,6bS,7S,8aS,8bS,10R,11 aR,12aS,12bS)-10-(4-((7-aminobenzo[d][1,3]dioxolan-4-yl)methyl)phenyl)-7-hydroxy-8b-(2-hydroxyacetyl)-6a,8a-dimethyl-6a,6b,7,8,8a,8b,11a,12,12a,12b-decahydro-1H-naphtho[2′,1′:4,5]indeno[1,2-d][1,3]dioxolan-4(2H)-one] |  | 7.81 | 
9 | C[C@]12C=CC(=O)C=C1[C@@H](F)C[C@H]1[C@@H]3C[C@H]4O[C@@H](c5ccc(Cc6ccc(N)c7c6CCO7)cc5)O[C@@]4(C(=O)CO)[C@@]3(C)C[C@H](O)[C@@]12F [Compound 010, (2S,6aS,6bR,7S,8aS,8bS,10R,11aR,12aS,12bS)-10-(4-((7-amino-2,3-dihydrobenzofuran-4-yl)methyl)phenyl)-2,6b-difluoro-7-hydroxy-8b-(2-hydroxyacetyl)-6a,8a-dimethyl-6a,6b,7,8,8a,8b,11a,12,12a,12b-decahydro-1H-naphtho[2′,1′:4,5]indeno[1,2-d][1,3]dioxolan-4(2H)-one] | 1.07 |  | 
10 | C[C@]12C=CC(=O)C=C1CC[C@@H]1[C@@H]2[C@@H](O)C[C@@]2(C)[C@H]1C[C@H]1O[C@@H](c3ccc(Cc4ccc(N)c5c4CCC5)cc3)O[C@]12C(=O)CO [Compound 011, (6aR,6bS,7S,8aS,8bS,10R,11aR,12aS,12bS)-10-(4-((7-amino-2,3-dihydro-1H-inden-4-yl)methyl)phenyl)-7-hydroxy-8b-(2-hydroxyacetyl)-6a,8a-dimethyl-6a,6b,7,8,8a,8b,11a,12,12a,12b-decahydro-1H-naphtho[2′,1′:4,5]indeno[1,2-d][1,3]dioxolan-4(2H)-one] |  | 4.25 | 
11 | CC12C=CC(=O)C=C1CCC1C2C(O)CC2(C)C1CC1OC(c3ccc(Cc4cc(N)cc5c4CCO5)cc3)OC12C(=O)CO [Compound 012, (6aR,6bS,7S,8aS,8bS,10R,11aR,12aS,12bS)-10-(4-((6-amino-2,3-dihydrobenzofuran-4-yl)methyl)phenyl)-7-hydroxy-8b-(2-hydroxyacetyl)-6a,8a-dimethyl-6a,6b,7,8,8a,8b,11a,12,12a,12b-decahydro-1H-naphtho[2′,1′:4,5]indeno[1,2-d][1,3]dioxolan-4(2H)-one] |  | 9.58 | 
